{
  "source": "paper PMC7248426",
  "about": "(Translational Oncology, 2020)",
  "key": {"five colon cancer cells": {"tested_on": "five colon cancer cells", "assay": "FITC-labeled peptide immunofluorescence assay, colon cancer cells", "assay_type": "cell-based, human", "conditions": "fluorescein-labeled peptide, 10 μM, 1 hour at RT, Figure 1B"}, "CCD841 cells": {"tested_on": "CCD841 cells", "assay": "FITC-labeled peptide immunofluorescence assay, control cells", "assay_type": "cell-based, human", "conditions": "fluorescein-labeled peptide, 10 μM, 1 hour at RT, Figure 1B"}, "[1]": {"tested_on": "five colon cancer cell lines", "assay": "Flow cytometry", "assay_type": "cell-based, human", "conditions": "FITC-L20 10 μM, 1 hour at RT, all colon cancer cells, Figure 1C"}, "[2]": {"tested_on": "gastric cancer cells including AGS, SNU216, and SNU638", "assay": "L20 peptide binding to gastric cancer cells", "assay_type": "cell-based", "conditions": "Figure 1D"}},
  "data": [
    {"sequence": "ANLNLWTDYIRW [L20 peptide]", "values": [
      {"measurement": "fluorescence on colon cancer cells", "setting": "five colon cancer cells", "result": "very intense fluorescence"},
      {"measurement": "fluorescence on the control cell line", "setting": "CCD841 cells", "result": "negligible"},
      {"measurement": "FACS fluorescence compared to the control peptide", "setting": "[1]", "result": "right shift of fluorescence"},
      {"measurement": "fluorescence in gastric cancer cell lines compared to the control cells", "setting": "[2]", "result": "did not show higher fluorescence"}
    ]}
  ]
}
